Assay: Retention time of the compound treated with FU'U ODN by HPLC analysis
Type: physicochemical

Retention_time: 19 min
SMILES: O=c1[nH]c(=O)n([C@H]2C[C@H](O)[C@@H](CO)O2)cc1F [FLOXURIDINE]
